# Data: publication PMC9166766 (Experimental & Molecular Medicine, 2022)
# No end group written: not given here.
# Tests used:
# [1] = test system: Jurkat T cells (PMA and ionomycin-induced gene expression); test: mRNA sequencing of activated Jurkat T cells; format: cell-based, human; details: P+I 8 h
# Experimental: We then extracted RNA from these cells. Construction of the cDNA library and next-generation sequencing was performed at LAS (Gimpo, Korea). We sequenced all samples on an Illumina NextSeq 500 system with 75 paired-end reads. For the RNA sequencing analysis, reads for each sample were aligned to the human genome (GRCh37/hg19 genome assembly) using STAR 2.4.0.1[25] with default settings. We used HOMER tools to quantify and normalize the defined genes in RefSeq transcripts. FPKM normalized genes were hierarchically clustered using Cluster3.0[26]. We visualized refined data with Java Treeview (http://jtreeview.sourceforge.net). We conducted gene ontology analysis of each cluster using the DAVID web tool (https://david.ncifcrf.gov). Finally, we visualized the expression levels of target genes using the Integrative Genomics Viewer (http://software.broadinstitute.org/software/igv). The raw data were submitted to the NCBI Gene Expression Omnibus under accession number GSE185561.
# Fig. 3 The CABIN1 peptide inhibits T-cell activation. a Heatmap of altered genes affected by FK506 treatment or CABIN1 peptide expression upon T-cell activation. b Gene Ontology analysis of cluster III. c mRNA expression levels of genes included in cluster III. d qRT-PCR data of genes in c. The experiment was independently repeated at least three times, and the data are presented as the mean ± standard deviation. Statistical differences were determined using two-tailed Student’s t-test. *p < 0.05, **p < 0.01, ***p < 0.001, NC negative control.
# tNFATC2 nuclear import = test: Nuclear localization of EGFP-tNFATC2 by confocal microscopy in Jurkat T cells; format: cell-based; details: 40 nM PMA and 1 μM ionomycin 4 h, FK506 0.5 μM, n = 10-12
# Experimental: We transfected Jurkat T cells with the pCAG-EGFP-tNFATC2-IRES-mCherry-peptide by electroporation. After two days, we pretreated these cells with 0.5 μM FK506 for 30 min. Then, we treated them with 40 nM PMA and 1 μM ionomycin under culture conditions for 4 h. Before imaging by a confocal laser scanning microscope (Nikon, Tokyo, Japan), we treated the cells with 10 μg/ml Hoechst 33342 (Invitrogen, Waltham, MA, USA) to stain nuclei. Colocalization analysis of mCherry and Hoechst was performed with ImageJ and its plugin JACoP to measure the Manders coefficient[23],[24].
# Scale bar, 50 μm e Nuclear-localized tNFATC2 was measured by calculating the colocalization ratio between Hoechst (M1) and EGFP (M2).
substance,measurement,setting,value
"CABIN1-L-1-2: 10 amino acids from proline 2146 to proline 2155 of full-length CABIN1; expressed GST-, GAL4 DBD- or HA-mCherry-tagged (PEITVTPPTP; also: expressed GST-, GAL4 DBD- or HA-mCherry-tagged, end not given here)",TDRD9 expression,"[1]; NC 1.428, NC_P+I 25.902",1.888 FPKM
same,LOC729603 expression,"[1]; NC 1.468, NC_P+I 5.071",3.329 FPKM
same,PDGFA expression,"[1]; NC 1.497, NC_P+I 26.809",8.169 FPKM
same,PHACTR2 expression,"[1]; NC 1.659, NC_P+I 9.467",2.791 FPKM
same,CABP1 expression,"[1]; NC 1.702, NC_P+I 5.834",1.689 FPKM
same,POU2AF1 expression,"[1]; NC 1.84, NC_P+I 36.298",2.971 FPKM
same,SPRY1 expression,"[1]; NC 2.079, NC_P+I 12.391",4.901 FPKM
same,GFOD1 expression,"[1]; NC 2.283, NC_P+I 12.861",6.312 FPKM
same,DSTYK expression,"[1]; NC 2.356, NC_P+I 7.198",3.595 FPKM
same,FMNL2 expression,"[1]; NC 2.395, NC_P+I 6.813",3.019 FPKM
same,ADORA2A expression,"[1]; NC 2.492, NC_P+I 11.633",1.475 FPKM
same,CD27 expression,"[1]; NC 2.525, NC_P+I 27.462",3.4 FPKM
same,TNFRSF4 expression,"[1]; NC 2.597, NC_P+I 31.683",11.916 FPKM
same,REL expression,"[1]; NC 2.654, NC_P+I 20.219",5.699 FPKM
same,JAK2 expression,"[1]; NC 2.788, NC_P+I 26.566",8.45 FPKM
same,LRRC8B expression,"[1]; NC 2.89, NC_P+I 28.699",4.298 FPKM
same,NPDC1 expression,"[1]; NC 3.008, NC_P+I 8.759",5.64 FPKM
same,CD27-AS1 expression,"[1]; NC 3.088, NC_P+I 14.958",4.613 FPKM
same,CST7 expression,"[1]; NC 3.315, NC_P+I 14.15",3.175 FPKM
same,TAGAP expression,"[1]; NC 3.351, NC_P+I 128.498",8.731 FPKM
same,CD55 expression,"[1]; NC 3.587, NC_P+I 39.451",12.082 FPKM
same,GTDC1 expression,"[1]; NC 3.595, NC_P+I 10.378",5.144 FPKM
same,KCNK5 expression,"[1]; NC 3.84, NC_P+I 14.865",4.904 FPKM
same,MYO1D expression,"[1]; NC 4.114, NC_P+I 11.118",5.995 FPKM
same,RDH10 expression,"[1]; NC 4.125, NC_P+I 19.889",5.524 FPKM
same,COL27A1 expression,"[1]; NC 4.149, NC_P+I 17.216",5.729 FPKM
same,PLK3 expression,"[1]; NC 4.432, NC_P+I 14.807",7.036 FPKM
same,NFATC1 expression,"[1]; NC 4.511, NC_P+I 15.287",3.916 FPKM
same,ASAP1 expression,"[1]; NC 4.678, NC_P+I 18.37",9.052 FPKM
same,GRK5 expression,"[1]; NC 5.451, NC_P+I 21.464",8.975 FPKM
same,CCDC64 expression,"[1]; NC 5.477, NC_P+I 33.545",11.039 FPKM
same,ATG14 expression,"[1]; NC 5.727, NC_P+I 30.239",11.252 FPKM
same,PELI1 expression,"[1]; NC 5.755, NC_P+I 16.085",8.465 FPKM
same,ARHGEF3 expression,"[1]; NC 6.146, NC_P+I 31.337",8.674 FPKM
same,PKIA expression,"[1]; NC 6.444, NC_P+I 49.019",18.138 FPKM
same,LTBP4 expression,"[1]; NC 7.304, NC_P+I 33.466",9.568 FPKM
same,LAMP3 expression,"[1]; NC 8.064, NC_P+I 31.61",9.828 FPKM
same,LAX1 expression,"[1]; NC 8.344, NC_P+I 24",7.578 FPKM
same,PTPN22 expression,"[1]; NC 8.928, NC_P+I 45.38",5.119 FPKM
same,VAMP1 expression,"[1]; NC 9.566, NC_P+I 50.97",14.752 FPKM
same,NINJ1 expression,"[1]; NC 10.319, NC_P+I 76.622",54.452 FPKM
same,KCNK1 expression,"[1]; NC 10.828, NC_P+I 36.893",13.139 FPKM
same,CD97 expression,"[1]; NC 10.97, NC_P+I 49.481",21.496 FPKM
same,FBXO34 expression,"[1]; NC 11.735, NC_P+I 48.015",18.386 FPKM
same,TBC1D20 expression,"[1]; NC 11.844, NC_P+I 35.808",18.427 FPKM
same,MIR6775 expression,"[1]; NC 12.409, NC_P+I 50.527",21.57 FPKM
same,AGK expression,"[1]; NC 14.395, NC_P+I 39.056",14.306 FPKM
same,FYN expression,"[1]; NC 14.671, NC_P+I 58.084",15.512 FPKM
same,MIR6821 expression,"[1]; NC 17.553, NC_P+I 62.894",25.116 FPKM
same,NDFIP1 expression,"[1]; NC 19.638, NC_P+I 54.615",24.432 FPKM
same,TBC1D4 expression,"[1]; NC 20.739, NC_P+I 73.749",13.191 FPKM
same,MAP2K3 expression,"[1]; NC 21.676, NC_P+I 144.057",43.237 FPKM
same,PTPN6 expression,"[1]; NC 22.163, NC_P+I 77.092",20.806 FPKM
same,FXYD5 expression,"[1]; NC 25.643, NC_P+I 101.352",42.856 FPKM
same,BCL2L1 expression,"[1]; NC 31.375, NC_P+I 113.956",41.852 FPKM
same,ATP6V1B2 expression,"[1]; NC 33.172, NC_P+I 129.395",60.661 FPKM
same,PIM3 expression,"[1]; NC 37.434, NC_P+I 180.382",72.895 FPKM
same,PPIF expression,"[1]; NC 58.328, NC_P+I 188.301",106.533 FPKM
same,proportion of nuclear-localized tNFATC2,tNFATC2 nuclear import,slightly higher
